Experimental findings from paper PMC2099433, “The binding site for neohesperidin dihydrochalcone at the human sweet taste receptor” (BMC Structural Biology, 2007) are described below.

Where a chain is given by its changes, count along the chain named. Where a SMILES comes first, the peptide text is derived from it.

In assay [1] the target is T1, hTAS1R2 + hTAS1R3 Y699F^4.60 (Homo sapiens, UniProt Q7RTX0+Q8TE23, Y699F).
T1 construct: expressed in transfected cells; host or cells: HEK293T cells stably expressing G16Gust44
T1 sequence (Q7RTX0 21-852 Y699F): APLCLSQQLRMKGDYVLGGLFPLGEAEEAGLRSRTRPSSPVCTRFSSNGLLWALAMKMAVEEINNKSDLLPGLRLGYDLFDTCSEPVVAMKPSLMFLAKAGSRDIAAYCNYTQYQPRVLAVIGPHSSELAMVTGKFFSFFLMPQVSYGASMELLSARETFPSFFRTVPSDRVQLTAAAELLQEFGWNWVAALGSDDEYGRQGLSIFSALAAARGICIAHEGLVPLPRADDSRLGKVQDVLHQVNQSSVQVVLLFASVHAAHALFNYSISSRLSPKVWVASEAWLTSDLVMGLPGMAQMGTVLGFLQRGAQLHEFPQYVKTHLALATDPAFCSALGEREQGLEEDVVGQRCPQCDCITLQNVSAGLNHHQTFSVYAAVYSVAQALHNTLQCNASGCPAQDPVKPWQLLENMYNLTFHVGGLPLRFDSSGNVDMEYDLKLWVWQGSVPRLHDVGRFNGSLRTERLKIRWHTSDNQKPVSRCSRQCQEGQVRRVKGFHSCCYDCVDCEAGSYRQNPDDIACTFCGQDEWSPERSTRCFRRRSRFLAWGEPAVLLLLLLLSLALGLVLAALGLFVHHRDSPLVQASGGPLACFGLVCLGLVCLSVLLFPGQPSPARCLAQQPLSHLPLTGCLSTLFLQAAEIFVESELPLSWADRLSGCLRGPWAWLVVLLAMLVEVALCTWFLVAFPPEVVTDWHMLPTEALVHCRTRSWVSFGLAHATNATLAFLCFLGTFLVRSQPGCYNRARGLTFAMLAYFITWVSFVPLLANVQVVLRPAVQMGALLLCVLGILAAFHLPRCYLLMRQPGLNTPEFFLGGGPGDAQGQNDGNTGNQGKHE
T1 sequence (Q8TE23 20-839): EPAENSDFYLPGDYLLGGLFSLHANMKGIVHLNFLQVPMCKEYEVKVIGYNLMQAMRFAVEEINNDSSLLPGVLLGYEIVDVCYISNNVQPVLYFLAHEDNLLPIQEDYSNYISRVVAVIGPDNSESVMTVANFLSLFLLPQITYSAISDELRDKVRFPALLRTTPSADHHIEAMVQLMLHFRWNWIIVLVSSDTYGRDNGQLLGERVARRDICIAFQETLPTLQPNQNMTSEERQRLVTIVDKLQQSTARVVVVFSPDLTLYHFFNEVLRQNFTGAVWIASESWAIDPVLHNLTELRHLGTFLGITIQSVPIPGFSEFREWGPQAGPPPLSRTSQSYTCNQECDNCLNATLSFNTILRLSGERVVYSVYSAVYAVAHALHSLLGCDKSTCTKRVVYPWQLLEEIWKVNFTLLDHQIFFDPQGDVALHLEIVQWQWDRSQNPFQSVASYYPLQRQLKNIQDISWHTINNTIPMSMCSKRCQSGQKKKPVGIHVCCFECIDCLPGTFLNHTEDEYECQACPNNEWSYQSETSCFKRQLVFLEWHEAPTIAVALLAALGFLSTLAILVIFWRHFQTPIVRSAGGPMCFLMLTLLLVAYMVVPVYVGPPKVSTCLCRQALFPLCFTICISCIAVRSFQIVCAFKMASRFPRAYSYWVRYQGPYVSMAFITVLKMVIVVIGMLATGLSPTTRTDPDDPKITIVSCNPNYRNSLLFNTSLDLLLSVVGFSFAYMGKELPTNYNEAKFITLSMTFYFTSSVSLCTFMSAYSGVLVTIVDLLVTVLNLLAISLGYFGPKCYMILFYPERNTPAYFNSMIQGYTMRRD
The assay is described as follows: Calcium response (FLIPR), hTAS1R3 mutant coexpressed with hTAS1R2. It counts as cell-based. Particulars: variant Y699F^4.60; for Emax: read-out: maximal signal (% of wt). In short, it runs like this:
(§1)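 HEK293T/G16Gust44, transient transfection of HSV-tagged TAS1R2 + TAS1R3 mutants; Fluo4-AM loading 1 h at 24 h; sweet tastants in C1 solution; FLIPR Ca2+ read; ΔF/F, mock-subtracted; ≥3 independent expts in duplicate.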

For assay [2], the target named is T2, hTAS1R2 + hTAS1R3 S640A^3.32 (Homo sapiens, UniProt Q7RTX0+Q8TE23, S640A).
T2 construct: expressed in transfected cells; host or cells: HEK293T cells stably expressing G16Gust44
T2 sequence (Q8TE23 20-839): T1 sequence (Q8TE23 20-839)
T2 sequence (Q7RTX0 21-852 S640A): T1 sequence (Q7RTX0 21-852 Y699F) with S620A, F679Y
The assay is described as above. The class given is cell-based. Particulars: variant S640A^3.32; for Emax: read-out: maximal signal (% of wt). In a few lines:
as §1

Turning to `COc1ccc(CCC(=O)c2c(O)cc(O[C@@H]3O[C@H](CO)[C@@H](O)[C@H](O)[C@H]3O[C@@H]3O[C@@H](C)[C@H](O)[C@@H](O)[C@H]3O)cc2O)cc1O` [NHDC, neohesperidin dihydrochalcone], in assay [1], the half-maximal effective concentration (EC50) was determined as 600 ± 400 µM and the Emax is 72 ± 17%. In addition, in assay [2], the EC50 worked out at 800 ± 200 µM and the Emax worked out at 63 ± 18%.
Taken in the same sequence, the figures for `COC(=O)[C@H](Cc1ccccc1)NC(=O)[C@@H](N)CC(=O)O` [aspartame] (HELM PEPTIDE1{D.F.[CO[*:1]]}$$$$V2.0) were 1200 ± 300 µM, 56 ± 2%, 1400 ± 500 µM and 61 ± 40%.

As a reminder, the EC50 is the concentration giving half of the maximal effect.
